Measured values: US6420131B1, “Use of fluorescein aryl ethers in high throughput cytochrome P450 inhibition assays” (Gentest Corporation, priority 1999, dated 2002)

What was measured:
Conditions in all cases: substrate uM: Ia 2, AMMC 20, CEC 40, MFC 50, BFC 50, BQ 40, BzRes 50; 30 min; enzyme 50 nM
[1] = molecular target: Rat CYP2A2 (Rattus norvegicus, UniProt P15149); experiment: Turnover of fluorometric substrates by rat CYP2A2
[2] = molecular target: T1, Rat CYP2C11 (Rattus norvegicus, UniProt P08683); experiment: Turnover of fluorometric substrates by rat CYP2C11
T1 sequence (P08683 1-500): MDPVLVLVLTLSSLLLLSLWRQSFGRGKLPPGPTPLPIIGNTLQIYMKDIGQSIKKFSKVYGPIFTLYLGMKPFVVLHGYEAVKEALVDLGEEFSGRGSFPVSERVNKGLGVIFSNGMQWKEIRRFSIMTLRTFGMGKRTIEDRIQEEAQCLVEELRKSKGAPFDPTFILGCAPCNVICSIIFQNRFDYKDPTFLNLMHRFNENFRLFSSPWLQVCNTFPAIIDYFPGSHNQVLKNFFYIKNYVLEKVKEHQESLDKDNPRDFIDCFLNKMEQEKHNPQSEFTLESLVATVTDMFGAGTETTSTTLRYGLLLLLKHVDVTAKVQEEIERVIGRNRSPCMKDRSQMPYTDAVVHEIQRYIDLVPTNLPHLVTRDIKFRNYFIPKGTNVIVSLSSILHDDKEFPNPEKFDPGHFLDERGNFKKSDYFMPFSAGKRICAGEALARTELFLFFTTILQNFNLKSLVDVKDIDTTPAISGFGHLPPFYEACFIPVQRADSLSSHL

[3] = molecular target: T2, Rat CYP2D2 (Rattus norvegicus, UniProt P10634); experiment: Turnover of fluorometric substrates by rat CYP2D2
T2 sequence (P10634 1-500): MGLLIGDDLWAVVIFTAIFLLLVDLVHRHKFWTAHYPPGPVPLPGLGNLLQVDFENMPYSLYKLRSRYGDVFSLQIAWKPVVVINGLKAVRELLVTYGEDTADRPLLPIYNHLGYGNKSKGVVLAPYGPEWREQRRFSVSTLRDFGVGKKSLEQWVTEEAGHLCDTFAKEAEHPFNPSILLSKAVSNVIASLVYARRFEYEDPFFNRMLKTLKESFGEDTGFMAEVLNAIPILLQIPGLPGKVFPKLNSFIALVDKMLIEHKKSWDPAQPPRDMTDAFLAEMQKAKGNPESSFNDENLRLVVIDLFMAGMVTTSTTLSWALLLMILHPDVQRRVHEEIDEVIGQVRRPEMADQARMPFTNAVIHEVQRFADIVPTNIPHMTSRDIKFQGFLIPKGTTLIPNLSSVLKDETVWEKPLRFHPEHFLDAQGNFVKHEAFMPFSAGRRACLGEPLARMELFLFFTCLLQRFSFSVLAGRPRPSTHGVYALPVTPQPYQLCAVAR

[4] = molecular target: T3, Rat CYP2B1 (Rattus norvegicus, UniProt P00176); experiment: Turnover of fluorometric substrates by rat CYP2B1
T3 sequence (P00176 1-491): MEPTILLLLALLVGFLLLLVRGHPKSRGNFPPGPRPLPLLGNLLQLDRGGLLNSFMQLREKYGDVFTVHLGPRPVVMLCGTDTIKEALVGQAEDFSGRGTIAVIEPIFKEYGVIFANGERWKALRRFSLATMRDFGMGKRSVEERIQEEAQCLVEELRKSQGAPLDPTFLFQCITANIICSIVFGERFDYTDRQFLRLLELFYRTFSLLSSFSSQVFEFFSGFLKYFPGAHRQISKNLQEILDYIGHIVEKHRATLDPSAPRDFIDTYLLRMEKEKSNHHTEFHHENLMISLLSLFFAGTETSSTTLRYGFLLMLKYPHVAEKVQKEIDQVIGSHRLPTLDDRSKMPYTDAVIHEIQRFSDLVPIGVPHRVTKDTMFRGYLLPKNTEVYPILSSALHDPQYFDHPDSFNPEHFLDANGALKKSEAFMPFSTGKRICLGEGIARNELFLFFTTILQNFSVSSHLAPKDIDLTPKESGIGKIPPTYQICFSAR

[5] = molecular target: T4, Rat CYP2C13 (Rattus norvegicus, UniProt P20814); experiment: Turnover of fluorometric substrates by rat CYP2C13
T4 sequence (P20814 1-490): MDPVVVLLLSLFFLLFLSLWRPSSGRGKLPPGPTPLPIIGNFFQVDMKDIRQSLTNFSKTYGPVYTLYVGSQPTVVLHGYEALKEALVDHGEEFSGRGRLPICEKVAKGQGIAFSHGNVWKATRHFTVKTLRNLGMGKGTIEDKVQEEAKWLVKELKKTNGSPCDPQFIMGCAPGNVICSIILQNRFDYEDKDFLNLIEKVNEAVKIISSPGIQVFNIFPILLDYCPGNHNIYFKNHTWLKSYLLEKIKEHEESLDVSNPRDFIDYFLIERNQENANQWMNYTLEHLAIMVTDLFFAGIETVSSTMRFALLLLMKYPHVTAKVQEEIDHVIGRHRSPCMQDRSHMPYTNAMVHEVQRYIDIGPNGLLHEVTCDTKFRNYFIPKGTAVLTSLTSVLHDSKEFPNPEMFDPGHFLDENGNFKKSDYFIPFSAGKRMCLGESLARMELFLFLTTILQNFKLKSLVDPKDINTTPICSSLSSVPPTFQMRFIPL

[6] = molecular target: T5, Rat CYP1A2 (Rattus norvegicus, UniProt P04799); experiment: Turnover of fluorometric substrates by rat CYP1A2
T5 sequence (P04799 1-513): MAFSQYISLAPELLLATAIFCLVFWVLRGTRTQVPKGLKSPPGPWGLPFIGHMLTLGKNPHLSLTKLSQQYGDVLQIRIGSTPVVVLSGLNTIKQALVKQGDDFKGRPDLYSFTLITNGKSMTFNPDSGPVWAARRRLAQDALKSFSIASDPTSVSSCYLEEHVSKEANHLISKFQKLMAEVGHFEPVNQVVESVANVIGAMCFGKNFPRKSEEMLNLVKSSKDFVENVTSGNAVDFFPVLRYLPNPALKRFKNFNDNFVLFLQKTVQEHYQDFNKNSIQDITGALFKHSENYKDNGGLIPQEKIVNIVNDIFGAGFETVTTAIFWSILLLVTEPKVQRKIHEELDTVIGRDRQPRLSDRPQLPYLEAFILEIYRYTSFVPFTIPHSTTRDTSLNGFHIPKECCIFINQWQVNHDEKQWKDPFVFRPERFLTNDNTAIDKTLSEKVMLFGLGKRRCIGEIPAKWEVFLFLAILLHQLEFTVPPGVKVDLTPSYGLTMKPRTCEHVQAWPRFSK

Rat CYP2A2, sequence (P15149 whole entry): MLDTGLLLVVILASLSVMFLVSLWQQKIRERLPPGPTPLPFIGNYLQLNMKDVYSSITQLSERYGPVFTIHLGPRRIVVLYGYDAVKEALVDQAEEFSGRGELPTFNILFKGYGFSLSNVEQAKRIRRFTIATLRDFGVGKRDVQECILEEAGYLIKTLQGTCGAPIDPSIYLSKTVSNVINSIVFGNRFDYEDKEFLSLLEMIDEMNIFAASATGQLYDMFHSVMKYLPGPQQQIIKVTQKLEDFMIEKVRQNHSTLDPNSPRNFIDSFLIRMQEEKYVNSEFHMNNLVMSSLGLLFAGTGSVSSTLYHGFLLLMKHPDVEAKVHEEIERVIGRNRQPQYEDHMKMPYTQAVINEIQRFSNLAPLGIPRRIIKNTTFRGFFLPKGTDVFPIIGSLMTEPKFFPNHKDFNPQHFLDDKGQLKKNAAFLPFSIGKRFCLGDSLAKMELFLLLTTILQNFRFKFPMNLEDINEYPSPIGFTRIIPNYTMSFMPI

Row | Structure (SMILES) | Turnover Numbers, CYP2A2 [1] | Turnover Numbers, CYP2C11 [2] | Turnover Numbers, CYP2D2 [3] | Turnover Numbers, CYP2B1 [4] | Turnover Numbers, CYP2C13 [5] | Turnover Numbers, CYP1A2 [6]
1 | O=c1cc(C(F)(F)F)c2ccc(OCc3ccccc3)cc2o1 [BFC, 7-Benzyloxy-4-trifluoromethylcoumarin] | 0.26 pmol product/min/pmol enzyme | 0.34 pmol product/min/pmol enzyme | 0.12 pmol product/min/pmol enzyme | 3.70 pmol product/min/pmol enzyme | 0.74 pmol product/min/pmol enzyme | 
2 | c1ccc(COc2ccc3cccnc3c2)cc1 [BQ, 7-Benzyloxyquinoline] | 2.8 pmol product/min/pmol enzyme |  | 4.4 pmol product/min/pmol enzyme | 2.5 pmol product/min/pmol enzyme |  | 2.3 pmol product/min/pmol enzyme
3 | O=c1ccc2nc3ccc(OCc4ccccc4)cc3oc-2c1 [BzRes, 7-benzyloxyresorufin] |  | 0.05 pmol product/min/pmol enzyme |  | 0.82 pmol product/min/pmol enzyme | 0.01 pmol product/min/pmol enzyme | 0.62 pmol product/min/pmol enzyme
4 | CCOc1ccc2cc(C#N)c(=O)oc2c1 [CEC, 7-Ethoxy-3-cyanocoumarin] | 0.04 pmol product/min/pmol enzyme | 0.55 pmol product/min/pmol enzyme |  | 0.45 pmol product/min/pmol enzyme |  | 1.38 pmol product/min/pmol enzyme
5 | O=C(OCc1ccccc1)c1ccccc1-c1c2ccc(=O)cc-2oc2cc(OCc3ccccc3)ccc12 [Compound Ia, O-Benzylfluorescein Benzyl Ester] | 0.030 pmol product/min/pmol enzyme | 0.065 pmol product/min/pmol enzyme | 0.194 pmol product/min/pmol enzyme |  | 0.003 pmol product/min/pmol enzyme | 0.041 pmol product/min/pmol enzyme
6 | COc1ccc2c(C(F)(F)F)cc(=O)oc2c1 [MFC, 7-Methoxy-4-trifluoromethylcoumarin] | 0.08 pmol product/min/pmol enzyme | 5.57 pmol product/min/pmol enzyme | 0.08 pmol product/min/pmol enzyme | 2.82 pmol product/min/pmol enzyme | 0.21 pmol product/min/pmol enzyme | 1.32 pmol product/min/pmol enzyme
